Target: Tyrosine-protein kinase BTK (Homo sapiens, UniProt Q06187)
Assay: Caliper-Based Kinase Assay: A Caliper-based kinase assay (Caliper Life Sciences, Hopkinton, Mass.) was used to measure inhibition of Btk kinase activity of a compound of the present disclosure. […] The reaction was then terminated with EDTA, final concentration 20 mM and the phosphorylated reaction product was quantified on a Caliper Desktop Profiler (Caliper LabChip 3000).

Sequence of Tyrosine-protein kinase BTK (Q06187 whole entry): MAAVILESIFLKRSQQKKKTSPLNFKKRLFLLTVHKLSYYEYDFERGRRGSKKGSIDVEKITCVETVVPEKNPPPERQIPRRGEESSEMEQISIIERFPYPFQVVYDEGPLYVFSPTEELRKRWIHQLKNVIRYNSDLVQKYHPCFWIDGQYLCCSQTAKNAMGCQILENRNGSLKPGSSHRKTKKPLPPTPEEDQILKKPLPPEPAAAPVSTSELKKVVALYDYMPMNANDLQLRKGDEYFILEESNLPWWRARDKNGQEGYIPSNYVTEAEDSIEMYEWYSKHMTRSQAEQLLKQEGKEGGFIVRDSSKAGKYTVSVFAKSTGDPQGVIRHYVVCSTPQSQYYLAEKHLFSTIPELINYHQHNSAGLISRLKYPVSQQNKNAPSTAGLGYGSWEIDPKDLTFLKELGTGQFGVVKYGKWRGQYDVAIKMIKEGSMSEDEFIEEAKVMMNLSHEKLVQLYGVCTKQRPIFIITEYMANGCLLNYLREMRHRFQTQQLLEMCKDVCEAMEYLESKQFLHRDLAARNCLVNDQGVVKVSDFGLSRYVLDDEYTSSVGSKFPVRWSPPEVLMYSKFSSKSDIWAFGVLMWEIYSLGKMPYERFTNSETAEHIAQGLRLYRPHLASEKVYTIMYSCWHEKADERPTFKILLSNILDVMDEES

IC50 [nM]	SMILES
16.1	CC(C)(C=C(C#N)C(=O)N1CCC[C@H]1Cn1nc(-c2ccc(Oc3ccccc3)cc2F)c2c(N)ncnc21)NC1COC1
0.6	CC(C)(C)N1CCN(C(C)(C)C=C(C#N)C(=O)N2CCC[C@@H](n3nc(-c4ccc(Oc5ccccc5)cc4F)c4c(N)ncnc43)C2)CC1

SMILES	IC50 [nM]
CC(C)(C=C(C#N)C(=O)N1CCC[C@H]1Cn1nc(-c2ccc(Oc3ccccc3)cc2F)c2c(N)ncnc21)N(C1CC1)C1COC1	26
